Literature values as cited in patent US20060269596A1, “Controlled release compositions comprising an acylanilide” (priority 2005, published 2006).

Columns and labels:
[1] = 37 C

solubility in water [1]: 5 mg per 1000 mL
absorption following oral administration (oral): well-absorbed
effect of co-administration with food on rate or extent of absorption (with food): no clinically significant effect
SMILES: CC(O)(CS(=O)(=O)c1ccc(F)cc1)C(=O)Nc1ccc(C#N)c(C(F)(F)F)c1 (racemic) [Bicalutamide]
